{"source": "patent US11999806B2", "about": "“Broad-spectrum polypeptide against enterovirus and application thereof” (WUHAN INSTITUTE OF VIROLOGY, CHINESE ACADEMY OF SCIENCES, priority 2018, dated 2024)", "key": {"CVA16": {"test_system": "CVA16", "format": "cell-based, Coxsackievirus A16", "conditions": "CCK-8; for IC50: read-out: IC50 against CVA16; for Virus inhibition rate (%): CVA16, RD cells, 24 h"}, "RD cells": {"test_system": "RD cells", "experiment": "Cytotoxicity by CCK-8 in RD cells", "format": "cell-based", "conditions": "RD cells; for Cell viability (%): 24 h; for cytotoxicity, result in words: CCK-8, 24 h"}, "[1]": {"experiment": "Cytotoxicity by CCK-8 in RD cells", "format": "cell-based", "conditions": "human, RD cells; for viability at 24 h, 0.46875 µM / viability at 24 h, 2.34375 µM / viability at 24 h, 4.6875 µM / viability at 24 h, 9.375 µM / viability at 24 h, 18.75 µM / viability at 24 h, 37.5 µM / viability at 24 h, 75 µM / viability at 24 h, 150 µM / viability at 24 h, 300 µM: read-out: Cell viability (%); for CC50 at 24 h: CCK-8, 24 h, Example 15, read-out: 50% cytotoxic concentration (CC50)"}}, "note": "Values joined by “and” are separate entries in the source; they are usually repeats but may differ in a detail not shown here. Identical values can stand only once. Like-named read-outs stand apart in the source and are kept apart here. Non-standard residues stand in square brackets, D forms with d. Residues, ends and D or L forms follow the SMILES beside them. No end group written: not given here.", "data": [{"molecule": "YGRKKRRQRRRGSGEEVRQYCR [ER]", "values": [{"measurement": "IC50", "setting": "CVA16; RD cells", "value": 3.21, "unit": "µM"}, {"measurement": "Cell viability (%)", "setting": "RD cells; 0.46875 μM", "value": "99.34% and 100%"}, {"measurement": "Cell viability (%)", "setting": "RD cells; 2.34375 μM", "value": "98.07% and 102.7%"}, {"measurement": "Cell viability (%)", "setting": "RD cells; 4.6875 μM", "value": "100.8% and 103.1%"}, {"measurement": "Cell viability (%)", "setting": "RD cells; 9.375 μM", "value": "98.48% and 102.4%"}, {"measurement": "Cell viability (%)", "setting": "RD cells; 18.75 μM", "value": "96.59% and 98.47%"}, {"measurement": "Cell viability (%)", "setting": "RD cells; 37.5 μM", "value": "95.69% and 92.24%"}, {"measurement": "Cell viability (%)", "setting": "RD cells; 75 μM", "value": "89.79% and 90.36%"}, {"measurement": "Cell viability (%)", "setting": "RD cells; 150 μM", "value": "74.32% and 76.72%"}, {"measurement": "Cell viability (%)", "setting": "RD cells; 300 μM", "value": "43.39% and 48.41%"}, {"measurement": "cytotoxicity, result in words", "setting": "RD cells", "value": "very low toxicity"}, {"measurement": "viability at 24 h, 0.46875 µM", "setting": "[1]", "value": 99.9, "unit": "%"}, {"measurement": "viability at 24 h, 2.34375 µM", "setting": "[1]", "value": 98.6, "unit": "%"}, {"measurement": "viability at 24 h, 4.6875 µM", "setting": "[1]", "value": 99.1, "unit": "%"}, {"measurement": "viability at 24 h, 9.375 µM", "setting": "[1]", "value": 98.5, "unit": "%"}, {"measurement": "viability at 24 h, 18.75 µM", "setting": "[1]", "value": 99, "unit": "%"}, {"measurement": "viability at 24 h, 37.5 µM", "setting": "[1]", "value": 94.8, "unit": "%"}, {"measurement": "viability at 24 h, 75 µM", "setting": "[1]", "value": 89.7, "unit": "%"}, {"measurement": "viability at 24 h, 150 µM", "setting": "[1]", "value": 72.9, "unit": "%"}, {"measurement": "viability at 24 h, 300 µM", "setting": "[1]", "value": 42.2, "unit": "%"}, {"measurement": "CC50 at 24 h", "setting": "[1]", "value": 290, "unit": "µM"}]}, {"molecule": "CC(=O)N[C@H](CCCNC(=N)N)C(=O)N[C@H](CS)C(=O)N[C@H](Cc1ccc(O)cc1)C(=O)N[C@H](CCC(N)=O)C(=O)N[C@H](CCCNC(=N)N)C(=O)N[C@@H](C(=O)N[C@H](CCC(=O)O)C(=O)N[C@H](CCC(=O)O)C(=O)N1CCC[C@@H]1C(=O)N1CCC[C@@H]1C(=O)N[C@H](CCCNC(=N)N)C(=O)N[C@H](CCCNC(=N)N)C(=O)N[C@H](CCCNC(=N)N)C(=O)N[C@H](CCC(N)=O)C(=O)N[C@H](CCCNC(=N)N)C(=O)N[C@H](CCCNC(=N)N)C(=O)N[C@H](CCCCN)C(=O)N[C@H](CCCCN)C(=O)N[C@H](CCCNC(=N)N)C(=O)NCC(=O)N[C@H](Cc1ccc(O)cc1)C(N)=O)C(C)C", "note": "[ER-DRI] (Ac-[dR][dC][dY][dQ][dR][dV][dE][dE][dP][dP][dR][dR][dR][dQ][dR][dR][dK][dK][dR]G[dY]-NH2)", "values": [{"measurement": "Virus inhibition rate (%)", "setting": "CVA16; 0.15625 μM", "value": "7.885% and 3.667% and 8.802%"}, {"measurement": "Virus inhibition rate (%)", "setting": "CVA16; 0.3125 μM", "value": "12.1% and 11.19% and 21.45%"}, {"measurement": "Virus inhibition rate (%)", "setting": "CVA16; 0.625 μM", "value": "15.77% and 13.75% and 27.14%"}, {"measurement": "Virus inhibition rate (%)", "setting": "CVA16; 1.25 μM", "value": "59.05% and 58.86% and 50.79%"}, {"measurement": "Virus inhibition rate (%)", "setting": "CVA16; 2.5 μM", "value": "93.52% and 84.17% and 77.93%"}, {"measurement": "Virus inhibition rate (%)", "setting": "CVA16; 5 μM", "value": "104.7% and 107.3% and 106.2%"}, {"measurement": "effect on CVA16, in words", "setting": "CVA16; RD cells", "value": "can significantly inhibit CVA16"}, {"measurement": "IC50", "setting": "CVA16; RD cells", "value": 0.856, "unit": "µM"}, {"measurement": "Cell viability (%)", "setting": "RD cells; 0.46875 μM", "value": "100.2% and 99.28%"}, {"measurement": "Cell viability (%)", "setting": "RD cells; 2.34375 μM", "value": "98.83% and 96.33%"}, {"measurement": "Cell viability (%)", "setting": "RD cells; 4.6875 μM", "value": "98.51% and 97.63%"}, {"measurement": "Cell viability (%)", "setting": "RD cells; 9.375 μM", "value": "96.79% and 94.15%"}, {"measurement": "Cell viability (%)", "setting": "RD cells; 18.75 μM", "value": "91.14% and 89.01%"}, {"measurement": "Cell viability (%)", "setting": "RD cells; 37.5 μM", "value": "86.77% and 86.97%"}, {"measurement": "Cell viability (%)", "setting": "RD cells; 75 μM", "value": "70.42% and 71.95%"}, {"measurement": "Cell viability (%)", "setting": "RD cells; 150 μM", "value": "34.62% and 34.08%"}, {"measurement": "Cell viability (%)", "setting": "RD cells; 300 μM", "value": "17.58% and 18.69%"}, {"measurement": "cytotoxicity, result in words", "setting": "RD cells", "value": "very low toxicity"}, {"measurement": "viability at 24 h, 0.46875 µM", "setting": "[1]", "value": 103, "unit": "%"}, {"measurement": "viability at 24 h, 2.34375 µM", "setting": "[1]", "value": 104, "unit": "%"}, {"measurement": "viability at 24 h, 4.6875 µM", "setting": "[1]", "value": 101, "unit": "%"}, {"measurement": "viability at 24 h, 9.375 µM", "setting": "[1]", "value": 96, "unit": "%"}, {"measurement": "viability at 24 h, 18.75 µM", "setting": "[1]", "value": 95.8, "unit": "%"}, {"measurement": "viability at 24 h, 37.5 µM", "setting": "[1]", "value": 86, "unit": "%"}, {"measurement": "viability at 24 h, 75 µM", "setting": "[1]", "value": 68.9, "unit": "%"}, {"measurement": "viability at 24 h, 150 µM", "setting": "[1]", "value": 34, "unit": "%"}, {"measurement": "viability at 24 h, 300 µM", "setting": "[1]", "value": 18.2, "unit": "%"}, {"measurement": "CC50 at 24 h", "setting": "[1]", "value": 117, "unit": "µM"}]}]}
